What was measured:
SHP2 protein [1] = molecular target: T1, SHP2 protein (Homo sapiens, UniProt Q06124); assay: Degradation activity on SHP2 protein in MV-411 cells (Western blot, DC50); assay type: cell-based; set-up: endogenous in cells; details: MV411 cells, 24 hours, read-out: Degradation activity for differenct cell lines MV411 (DC50)
T1 sequence (Q06124 1-593): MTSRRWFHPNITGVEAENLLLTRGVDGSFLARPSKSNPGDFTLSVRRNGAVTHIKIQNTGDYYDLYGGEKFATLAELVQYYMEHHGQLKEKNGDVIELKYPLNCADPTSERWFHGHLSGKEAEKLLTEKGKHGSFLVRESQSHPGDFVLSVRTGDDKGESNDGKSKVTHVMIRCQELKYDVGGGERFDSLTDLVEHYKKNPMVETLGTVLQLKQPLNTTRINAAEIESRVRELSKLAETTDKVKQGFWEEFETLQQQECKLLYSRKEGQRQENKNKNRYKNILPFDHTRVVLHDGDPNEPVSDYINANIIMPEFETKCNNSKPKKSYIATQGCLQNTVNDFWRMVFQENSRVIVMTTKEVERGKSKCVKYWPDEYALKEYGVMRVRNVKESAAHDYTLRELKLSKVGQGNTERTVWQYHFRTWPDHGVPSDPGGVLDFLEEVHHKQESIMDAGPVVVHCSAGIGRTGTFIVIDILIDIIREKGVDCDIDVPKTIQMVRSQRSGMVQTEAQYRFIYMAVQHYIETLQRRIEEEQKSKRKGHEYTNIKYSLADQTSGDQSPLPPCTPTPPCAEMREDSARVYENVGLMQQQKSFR
Method in brief: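 MV-411 cells (1×10^6 cells/well, IMDM + 10% FBS) were treated 24 h with compound at 0.1-100 nM final, 0.1% DMSO, duplicates. SHP2 measured by Western blot against GAPDH, band density normalised to DMSO control; DC50 from dose-response fit.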

SHP2 protein [2] = molecular target: T1, SHP2 protein; assay: Degradation activity on SHP2 protein in NCI-H358 cells (Western blot, DC50); assay type: cell-based; set-up: endogenous in cells; details: read-out: Degradation activity for differenct cell lines NCI-H358 (DC50)
Method in brief: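 Cells were treated 24 h at 37 °C with compound (0.1–100 nM final, 0.1% DMSO). SHP2 was measured by Western blot with GAPDH as loading control, densitometry normalized to DMSO (100%). DC50, the concentration giving 50% degradation, came from a dose-response fit.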

Row | Compound | DC50 (SHP2 protein [1]) [nM] | DC50 (SHP2 protein [2]) [nM]
1 | CCC1(N)CCN(c2cnc(Sc3cccc(NC(=O)CCCCCCN4CC5(CCN(c6ccc(C(=O)NCc7ccc8c(c7)CN(C7CCC(=O)NC7=O)C8=O)nn6)C5)C4)c3)cn2)CC1 (stereo not drawn) [Compound 161] | < 100 | 100 to 1000
2 | CC1(N)CCN(c2cnc(Sc3cccc(NC(=O)CCCCCCCCN4C5CCC4CN(c4ccc(C(=O)NCc6ccc7c(c6)CN(C6CCC(=O)NC6=O)C7=O)nn4)C5)c3)cn2)CC1 (stereo not drawn) [Compound 119] | < 100 | < 100
3 | NC1(CO)CCN(c2cnc(Sc3cccc(NC(=O)CCCCCCN4CC5(CCN(c6ccc(C(=O)NCc7ccc8c(c7)CN(C7CCC(=O)NC7=O)C8=O)nn6)C5)C4)c3)cn2)CC1 (stereo not drawn) [Compound 168] | < 100 | 100 to 1000
4 | Cc1ncsc1-c1ccc([C@H](C)NC(=O)[C@@H]2C[C@@H](O)CN2C(=O)[C@@H](NC(=O)CCCCCCCCN2CCN(C(=O)CCC(=O)Nc3cccc(Sc4ncc(N5CCC(C)(N)CC5)nc4N)c3Cl)CC2)C(C)(C)C)cc1 [Compound 999] | < 100 | < 100

More lines, now with the values ahead:

Row | DC50 (SHP2 protein [1]) [nM] | DC50 (SHP2 protein [2]) [nM] | Compound
5 | < 100 | < 100 | CC1(N)CCN(c2cnc(Sc3cccc(NC(=O)CCCCCCCCN4CCN(c5ccc(C(=O)NCc6ccc7c(c6)CN(C6CCC(=O)NC6=O)C7=O)nn5)CC4)c3)cn2)CC1 (stereo not drawn) [Compound 63]
6 | < 100 | < 100 | CC1(N)CCN(c2cnc(Sc3cccc(NC(=O)CCCCCCCCN4CCN(c5ccc(C(=O)NCc6ccc7c(c6)CN(C6CCC(=O)NC6=O)C7=O)nn5)CC4C(F)(F)F)c3)cn2)CC1 (stereo not drawn) [Compound 174]
